{"source": "PubChem BioAssay (NCI)", "note": "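Method: 48-hour compound exposure of cells in 96-well plates, five concentrations, linear interpolation of endpoints. TGI: concentration producing complete growth inhibition.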"}
{"system": "OVCAR-5 ovarian", "experiment": "growth of human tumour cells (NCI), 48 h", "units": {"TGI": "µM"}}
{"compound": "OC1[C@@H]2[C@@H](O)[C@H](O)[C@@H](O)N2C[C@@H]1O", "note": "(some centres not stated)", "TGI": "> 100"}
{"compound": "C=C1C(=O)C[C@H]2C(=C)C(=O)O[C@@H]2C2C1CC[C@@]2(C)O", "note": "(some centres not stated)", "TGI": "> 100"}
{"compound": "COC(=O)C1=C(C)NC2=C(C(=O)c3ccccc32)C1c1cn(-c2ccccc2)nc1-c1ccccc1", "note": "(configuration not stated)", "TGI": "> 100"}
{"compound": "OCC1OC(c2cccc3cc(O)c(O)cc23)CC1O", "note": "(configuration not stated)", "TGI": "> 100"}
{"compound": "CC(C)(Cl)C(Br)CCC(C)(Cl)C(Br)CBr", "note": "(configuration not stated)", "TGI": 48.7}
{"compound": "O=C(NCC(=O)N1CCCC1C(=O)OC(=O)C1CCCN1C(=O)CNC(=O)OCc1ccccc1)OCc1ccccc1", "note": "(configuration not stated)", "TGI": 90.1}
{"compound": "CN(Cc1cnc2nc(N)nc(N)c2n1)c1ccc(C(=O)NC(CCC(=O)NCCC(P(=O)(O)O)P(=O)(O)O)C(=O)O)cc1", "note": "(configuration not stated)", "TGI": "> 100"}
{"compound": "O=C1NC(NNc2ccccc2)=N/C1=C\\c1ccccc1O", "TGI": "> 100"}
{"compound": "C[N+](CCCl)(CCCl)Cc1cccc2cccc([N+](=O)[O-])c12", "TGI": "> 100"}
{"compound": "O=C1NC(=O)C(c2c[nH]c3ccccc23)=C1c1cnc[nH]1", "TGI": "> 100"}
{"compound": "Cc1c([N+](=O)[O-])ccc2c(NCCCN(C)C)ccnc12", "TGI": 92.5}
{"compound": "Cc1cc(C)nc(NC(=O)c2ccc(Br)s2)c1", "TGI": 62.4}
{"compound": "N#Cc1nc2ccccc2nc1N1CCN(c2ccc([N+](=O)[O-])cc2)CC1", "TGI": "> 100"}
{"compound": "CN1CCN(C(=O)CCNC(=O)Cc2ccc(C(=O)c3ccccc3)cc2)CC1", "TGI": "> 100"}
{"compound": "COc1cc(OC)c(-c2ccc(OCc3ccccc3)c3c(OC)cc(C)cc23)c2c1C(C)=N[C@H](C)C2", "TGI": 4.44}
{"compound": "COc1ccc(N2C(=O)C(=O)N(c3ccccc3[N+](=O)[O-])C2=S)cc1", "TGI": 63.4}
{"compound": "O=C(O)CC1NC(/C(=C/c2ccccc2)NC(=O)c2ccccc2)OC1=O", "note": "(configuration not stated)", "TGI": "> 100"}
{"compound": "Nc1c2c(nc3cc(F)c(F)cc13)CCC2", "TGI": "> 100"}
{"compound": "COc1ccccc1/C(=N\\OCCC(=O)O)c1cccs1", "TGI": "> 100"}
{"compound": "CCCn1c2ccccc2c2ccc3c(c21)C(=O)C=CC3=O", "TGI": "> 10"}
{"compound": "CC1(c2cccs2)CC(c2cccs2)=C(C#N)C(=C(C#N)C#N)N1", "note": "(configuration not stated)", "TGI": 39.3}
{"compound": "O=C1C2CC=CCC2C(=O)N1n1c(Cc2ccc(Cl)cc2)n[nH]c1=O", "note": "(configuration not stated)", "TGI": "> 100"}
{"compound": "CCN(CC)CCC(=O)/C=C/c1ccccc1", "TGI": 31.3}
{"compound": "Oc1c(C2=NNC(c3ccc(Cl)cc3Cl)C2)ccc2ccccc12", "note": "(configuration not stated)", "TGI": "> 100"}
{"system": "U251 CNS", "experiment": "growth of human tumour cells (NCI), 48 h", "units": {"TGI": "µM"}}
{"compound": "OC1[C@@H]2[C@@H](O)[C@H](O)[C@@H](O)N2C[C@@H]1O", "note": "(some centres not stated)", "TGI": "> 100"}
{"compound": "C=C1C(=O)C[C@H]2C(=C)C(=O)O[C@@H]2C2C1CC[C@@]2(C)O", "note": "(some centres not stated)", "TGI": "> 100"}
{"compound": "COC(=O)C1=C(C)NC2=C(C(=O)c3ccccc32)C1c1cn(-c2ccccc2)nc1-c1ccccc1", "note": "(configuration not stated)", "TGI": "> 100"}
{"compound": "OCC1OC(c2cccc3cc(O)c(O)cc23)CC1O", "note": "(configuration not stated)", "TGI": "> 100"}
{"compound": "CC(C)(Cl)C(Br)CCC(C)(Cl)C(Br)CBr", "note": "(configuration not stated)", "TGI": 69.5}
{"compound": "O=C(NCC(=O)N1CCCC1C(=O)OC(=O)C1CCCN1C(=O)CNC(=O)OCc1ccccc1)OCc1ccccc1", "note": "(configuration not stated)", "TGI": "> 100"}
{"compound": "CN(Cc1cnc2nc(N)nc(N)c2n1)c1ccc(C(=O)NC(CCC(=O)NCCC(P(=O)(O)O)P(=O)(O)O)C(=O)O)cc1", "note": "(configuration not stated)", "TGI": "> 100"}
{"compound": "O=C1NC(NNc2ccccc2)=N/C1=C\\c1ccccc1O", "TGI": "> 100"}
{"compound": "C[N+](CCCl)(CCCl)Cc1cccc2cccc([N+](=O)[O-])c12", "TGI": "> 100"}
{"compound": "O=C1NC(=O)C(c2c[nH]c3ccccc23)=C1c1cnc[nH]1", "TGI": "> 100"}
{"compound": "Cc1c([N+](=O)[O-])ccc2c(NCCCN(C)C)ccnc12", "TGI": "> 100"}
{"compound": "Cc1cc(C)nc(NC(=O)c2ccc(Br)s2)c1", "TGI": "> 100"}
{"compound": "N#Cc1nc2ccccc2nc1N1CCN(c2ccc([N+](=O)[O-])cc2)CC1", "TGI": "> 100"}
{"compound": "CN1CCN(C(=O)CCNC(=O)Cc2ccc(C(=O)c3ccccc3)cc2)CC1", "TGI": "> 100"}
{"compound": "COc1cc(OC)c(-c2ccc(OCc3ccccc3)c3c(OC)cc(C)cc23)c2c1C(C)=N[C@H](C)C2", "TGI": 3.91}
{"compound": "COc1ccc(N2C(=O)C(=O)N(c3ccccc3[N+](=O)[O-])C2=S)cc1", "TGI": "> 100"}
{"compound": "O=C(O)CC1NC(/C(=C/c2ccccc2)NC(=O)c2ccccc2)OC1=O", "note": "(configuration not stated)", "TGI": 34.5}
{"compound": "Nc1c2c(nc3cc(F)c(F)cc13)CCC2", "TGI": "> 100"}
{"compound": "COc1ccccc1/C(=N\\OCCC(=O)O)c1cccs1", "TGI": "> 100"}
{"compound": "CC(C)(Br)C(Br)CCC1(C2CO2)CO1", "note": "(configuration not stated)", "TGI": "> 5"}
{"compound": "CCCn1c2ccccc2c2ccc3c(c21)C(=O)C=CC3=O", "TGI": "> 10"}
{"compound": "CC1(c2cccs2)CC(c2cccs2)=C(C#N)C(=C(C#N)C#N)N1", "note": "(configuration not stated)", "TGI": 31}
{"compound": "O=C1C2CC=CCC2C(=O)N1n1c(Cc2ccc(Cl)cc2)n[nH]c1=O", "note": "(configuration not stated)", "TGI": "> 100"}
{"compound": "CCN(CC)CCC(=O)/C=C/c1ccccc1", "TGI": 25.6}
{"compound": "Oc1c(C2=NNC(c3ccc(Cl)cc3Cl)C2)ccc2ccccc12", "note": "(configuration not stated)", "TGI": "> 100"}
{"system": "NCI-H226 lung", "experiment": "growth of human tumour cells (NCI), 48 h", "units": {"TGI": "µM"}}
{"compound": "OC1[C@@H]2[C@@H](O)[C@H](O)[C@@H](O)N2C[C@@H]1O", "note": "(some centres not stated)", "TGI": "> 100"}
{"compound": "C=C1C(=O)C[C@H]2C(=C)C(=O)O[C@@H]2C2C1CC[C@@]2(C)O", "note": "(some centres not stated)", "TGI": 54.3}
{"compound": "COC(=O)C1=C(C)NC2=C(C(=O)c3ccccc32)C1c1cn(-c2ccccc2)nc1-c1ccccc1", "note": "(configuration not stated)", "TGI": "> 100"}
{"compound": "OCC1OC(c2cccc3cc(O)c(O)cc23)CC1O", "note": "(configuration not stated)", "TGI": "> 100"}
{"compound": "CC(C)(Cl)C(Br)CCC(C)(Cl)C(Br)CBr", "note": "(configuration not stated)", "TGI": 60.6}
{"compound": "O=C(NCC(=O)N1CCCC1C(=O)OC(=O)C1CCCN1C(=O)CNC(=O)OCc1ccccc1)OCc1ccccc1", "note": "(configuration not stated)", "TGI": 66.2}
{"compound": "CN(Cc1cnc2nc(N)nc(N)c2n1)c1ccc(C(=O)NC(CCC(=O)NCCC(P(=O)(O)O)P(=O)(O)O)C(=O)O)cc1", "note": "(configuration not stated)", "TGI": "> 100"}
{"compound": "O=C1NC(NNc2ccccc2)=N/C1=C\\c1ccccc1O", "TGI": "> 100"}
